Among the data in ChEMBL document CHEMBL2163265, “Antifungal peptides at membrane interaction” (Eur J Med Chem, 2012) are Activity values, retold here.

Calls of active or inactive are those of the source. No cut-off for these calls is given here. Where a SMILES comes first, the peptide text is derived from it.

The test system of assay [1] is Candida albicans. Briefly: Binding affinity to Candida albicans MYA-2876 membrane at 2 mg/ml incubated for 15 mins on ice followed by 45 mins in room temperature by fluorescence microscopic analysis. The format is functional.
The subject of assay [2] is Candida albicans. Kind of assay: Binding affinity to Candida albicans ATCC 90028 membrane at 2 mg/ml incubated for 15 mins on ice followed by 45 mins in room temperature by fluorescence microscopic analysis. The format is functional.

In the case of `N=C(N)NCCC[C@@H]1NC(=O)[C@H](CCCNC(=N)N)NC(=O)[C@H](Cc2c[nH]c3ccccc23)NC(=O)[C@H](Cc2c[nH]c3ccccc23)NC(=O)[C@H](CCCNC(=N)N)NC(=O)[C@H](Cc2ccccc2)NC(=O)[C@H](Cc2c[nH]cn2)NC1=O` (cyclo(FRWWRRH)), the outcome in assay [1] and in assay [2] was Active.
